These results are taken from PubChem BioAssay (NCI).

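Protocol summary: plate cells (96-well), add compound at 5 concentrations, incubate 48 h, interpolate endpoints linearly. GI50 marks 50% less growth. TGI: total growth inhibition.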

In this experiment the test system is MDA-MB-468 breast. Nature of the experiment: NCI anticancer screen, dose series, 48 h.
For `O=c1[nH]c2nc(NC3CCOCC3)ncc2cc1Oc1ccc(F)cc1F`, the GI50 is above 25000 nM and the TGI is above 25000 nM.

Consider `O=C(Nc1ccc(-c2nc(-c3cccc(OCCN4CCOCC4)c3)c(-c3ccnc(Br)c3)[nH]2)cc1)c1ccccc1`, for which the GI50 was 1770 nM and the TGI was 5700 nM.

Consider `C=C1CCC2(C#N)[C@H]3[C@H](CC[C@@H]2C)[C@@H](C)C[C@@H](CC(C)(C)NC(=O)CN2CCC2=O)[C@H]13` (stereo partly specified), for which the GI50 is 3220 nM and the TGI is 22900 nM.

On to `c1ccc2c(-c3nc(-c4c[nH]c5ccncc45)cs3)c[nH]c2c1`, for which the GI50 is 226 nM and the TGI stood at 1510 nM.

Turning to `Cc1nc(Nc2ccccn2)sc1C(=O)/C=C/c1ccc(Cl)cc1`, the GI50 was 395 nM and the TGI was found to be 5700 nM.

`Cn1cc(-c2ccc3nnc(Sc4ccc5ncccc5c4)n3n2)cn1`: the GI50 was 16400 nM and the TGI is above 91400 nM.

Take `Cc1c2cc(Cl)c3ccccc3c2c[n+]2ccccc12`: the GI50 was 165 nM and the TGI was determined as 570 nM.

On to `C#Cc1nc2ccccc2c(=O)[nH]1`, for which the GI50 is 199 nM and the TGI was 486 nM.

Consider `Cc1nn2c(/C=C3/C(=O)Nc4cc(Cl)ccc43)c(-c3ccccc3)nc2s1`, for which the GI50 is 27700 nM and the TGI was above 100000 nM.

For `COc1ccc2[nH]c(O)c(/C=c3/cc4c(c(-c5ccc(F)c(OC)c5)n3)=Nc3ccccc3-4)c2c1`, the GI50 was 1430 nM and the TGI worked out at 2940 nM.

For the molecule `Cn1cc(C2=C(c3cn(C)c4ccc(Cl)cc34)C(=O)NC2=O)c2ccccc21`, the GI50 was 2860 nM and the TGI came out at 22000 nM.

As to `OCc1ccc(-c2cscc2-c2ccc(CO)o2)o1`, the GI50 is 74 nM and the TGI stood at 281 nM.

Take `COc1ccc(-c2nc(-c3nc4ccc(F)cc4[nH]3)c3ccccn23)cc1`: the GI50 was 4120 nM and the TGI came to 57100 nM.

With `C=CC(=O)Nc1cc(N2CCN(CC)CC2)ccc1Nc1cc(N(C)C(=O)Nc2c(Cl)c(OC)cc(OC)c2Cl)ncn1`, the GI50 is 1680 nM and the TGI is 4160 nM.

As for `Cc1cc(O)c(C2=NN(c3ccc(S(N)(=O)=O)cc3)C(c3ccc(Cl)cc3)C2)c(C)c1Cl` (stereo unspecified), the GI50 was 10700 nM and the TGI is 24600 nM.

As to `Cc1nc2ccc(NC(=O)CCNC(=O)CCCc3ccc(CC(C(=O)O)C(=O)O)cc3)cc2s1`, the GI50 is above 100000 nM and the TGI is above 100000 nM.

With `Cc1nc2c(n1C)C(=O)c1ccccc1C2=O`, the GI50 was 25100 nM and the TGI is above 100000 nM.

As for `COc1cc(C)c(C2NC(=O)c3ccccc3N2)cc1C` (stereo unspecified), the GI50 is 754 nM and the TGI was above 100000 nM.

In the case of `CCN(c1cc(-c2ccc(CN3CCOCC3)cc2)cc(C(=O)NCc2c(C)cc(C)[nH]c2=O)c1C)C1CCOCC1`, the GI50 is 13400 nM and the TGI worked out at 30400 nM.

Regarding `CSCCCNC(=O)c1ccc2c(c1)/C(=C/c1[nH]c(C)cc1C)C(=O)N2`, the GI50 was 481 nM and the TGI is above 100000 nM.

Turning to `COc1cnc2c(c1)C(=O)c1c-2n(CCCNCCO)c(=O)c2ccncc12`, the GI50 is 283 nM and the TGI amounted to 1650 nM.

In the case of `O=P1(S)OC[C@H]2O[C@@H]3[C@H](F)[C@@H]2OP(O)(=S)OC[C@H]2O[C@H]([C@H](F)[C@@H]2O1)n1cnc2c(ncnc21)NC/C=C/CNc1ncnc2c1ncn23` (stereo partly specified), the GI50 is 11500 nM and the TGI was above 100000 nM.

Regarding `O=C(Oc1ccc(CO[N+](=O)[O-])cc1)c1ccccc1`, the GI50 is 146 nM and the TGI was 332 nM.

Turning to `O=c1cc(N/N=C/c2ccc(F)cc2)c2cc(Cl)ccc2[nH]1`, the GI50 is 13300 nM and the TGI amounted to 49100 nM.

For `NCCOCCOCCNc1nc(-c2ccc(Cl)cc2)nc(N2CCN(c3ccccn3)CC2)n1`, the GI50 is 1950 nM and the TGI is 3990 nM.

As to `c1ccc(-c2nc(N3CCOCC3)c3c4c(sc3n2)CCCCCC4)nc1`, the GI50 was 4120 nM and the TGI was 19000 nM.

On to `O=C(NCCc1ccccn1)OCc1nc2nc(Cl)nc(N3CCOCC3)c2[nH]1`, for which the GI50 was 1350 nM and the TGI amounted to 2880 nM.

Regarding `COc1ccc(C(O)c2cc3c(N)c(C(=O)Nc4cccc(Cl)c4)sc3nc2C)cc1` (stereo unspecified), the GI50 was 286 nM and the TGI worked out at 28400 nM.

Take `COc1ccc(C(=O)NNc2nc(Cl)nc(N3CCN(C(c4ccccc4)c4ccccc4)CC3)n2)cc1`: the GI50 was 2500 nM and the TGI was 47500 nM.

With `O=C([O][Sn]([O]C(=O)c1ccccn1)([c]1ccccc1)[c]1ccccc1)c1ccccn1`, the GI50 was 1450 nM and the TGI was 2760 nM.

As to `O=C1CCC(N2C(=O)c3ccccc3C2=O)C(=O)N1` (stereo unspecified), the GI50 was above 100000 nM and the TGI was above 100000 nM.

For the molecule `C1=C2CCCC3=Cc4ccccc4OC23Oc2ccccc21`, the GI50 was 5420 nM and the TGI was found to be 69100 nM.

As to `COc1cc2c(cc1OC)C(=O)/C(=C/c1cc(-c3ccc4c(c3)OCO4)n[nH]1)C2`, the GI50 was 1070 nM and the TGI was 2410 nM.

In the case of `Cc1ccc(S(=O)(=O)c2nc(-c3ccccc3)oc2S(C)=O)cc1` (stereo unspecified), the GI50 was 520 nM and the TGI was found to be 2150 nM.

Take `CS(=O)(=O)Nc1cc(-c2ccc3ncc(C#N)c(NCc4ccccc4O)c3c2)cnc1Cl`: the GI50 is 173 nM and the TGI came to 1680 nM.

As to `CCN=C1C=CC(=C(c2ccc(N(CC)CC)cc2)c2ccc(N(CC)CC)cc2)c2ccccc21`, the GI50 was 30.2 nM and the TGI came out at 228 nM.

Take `COc1cc(NC(=O)CCSc2nc3ccc(C)cc3c(=O)n2Cc2ccccc2)cc(OC)c1OC`: the GI50 is 5390 nM and the TGI is above 100000 nM.

With `Cc1nc(Nc2cccnc2)sc1C(=O)/C=C/c1ccc(Cl)cc1`, the GI50 was 2890 nM and the TGI turned out to be 8480 nM.
